In publication PMC11243149, “Assessing the Effects of Thiazole-Carboxamide Derivatives on the Biophysical Properties of AMPA Receptor Complexes as a Potential Neuroprotective Agent” (Molecules, 2024):
Where two headings read alike, the source gives them in different places.

Legend:
Type in all cases: cell-based
[1] = target: T1, GluA2 (Homo sapiens, UniProt P42262); test: Whole-cell patch-clamp recordings of homomeric GluA2 AMPAR in transfected HEK293T cells; details: for Amplitude (glutamate plus TC compound): 10 mM glutamate + TC compound (12 µM optimal concentration), HEK293T, -60 mV, pH 7.4, 22 °C, mean ± SEM; for Amplitude (glutamate plus TC compound) / Amplitude, applying glutamate alone after TC compound: n = 10; for Amplitude, applying glutamate alone after TC compound: 10 mM glutamate alone after 20 s wash following the TC compound; for A/AI: ratio of current with glutamate alone (A) to inhibited current after TC compound (AI); for t deact: weighted tau of deactivation, 10 mM glutamate for 1 ms, glutamate alone 2.3±0.1; for t deact / t des: with TC compound; for t des: weighted tau of desensitization, 10 mM glutamate 500 ms, glutamate alone 2.6±0.1
T1 construct: expressed in transfected cells; host or cells: HEK293T
Procedure: (§1) The effect of five TC compounds on whole-cell currents of four AMPAR subunits (GluA1, GluA1/2, GluA2, and GluA2/3) was investigated using transfected HEK293T cells. Each compound was applied separately to each subunit, with experiments conducted on 8–10 cells per condition to ensure reproducibility. […] At a glutamate concentration of 10 mM and a 500 ms protocol, approximately 95% of AMPAR channels were open. The A/AI ratio was calculated to compare the results, where A represents normalized current readings and AI indicates the inhibited current following TC compound exposure. […] Following closely, TC-1 inhibited the tested subunits by 5-fold.
(§2) The IC50 values were examined using GraphPad Prism software 9.5.0.730 (x64) (Table S6), which confirmed these findings. The IC50 values of TC substances were calculated by standardizing the peak current amplitudes using data obtained from 8–10 cells. Following a 500 ms exposure to the compounds, the cells were rinsed with glutamate for 20 s. Next, a solution containing just glutamate at a concentration of 10 mM was administered, and the resulting immediate induced electrical current was measured and documented (Figure 3).
(§3) In addition, an evaluation was conducted on the deactivation rates (τw deact) of all the examined chemicals to investigate their impact on the kinetics of deactivation. The chemicals were assessed for their effect on the deactivation kinetics of AMPAR subunits by briefly administering 10 mM glutamate for 1 ms to begin currents. This experimental setup allowed for the observation of τw deact under controlled conditions. […] TC-5 induced an approximately 2-fold increase in τw deact across all four tested subunits. […] These findings highlight the differential impact of TC compounds on deactivation kinetics across AMPAR subunits, shedding light on their potential neuroprotective mechanisms.
(§4) The flip isoform was uniformly employed across all AMPAR subunits in this study. These subunits were subcloned into the pRK vector and expressed in Human Embryonic kidney cells sourced (Sigma, München, Germany). HEK293T cells were grown in Dulbecco Modified Eagle Medium (DMEM) (Sigma, München, Germany) containing 10% FBS (fetal bovine serum), 0.1 mg/mL streptomycin, and 1 mM sodium pyruvate (Biological Industries; Beit-Haemek, Israel). HEK293T cells were incubated at 37 °C and 5% CO2 was supplemented to the medium. It was subcultured twice a week until cells reached pass #20. The transfection reagent used was either jetPRIME (Polyplus: New York, NY, USA) or Lipofectamine 2000 (Invitrogen; San Diego, CA, USA). Cells were kept for 36 h. after transfection in 12-well plates. Then, they were replated on coverslips coated with Laminin (1 mg/mL; Sigma, Germany) for electrophysiology recordings. Cells were then seeded in Petri dishes in DMEM supplemented with 10% fetal calf serum and antibiotics and maintained in a humidified incubator at 37 °C and 5% CO2. Highly fluorescent cells were identified and selected for recording post-transfection.
(§5) HEK293T cells were recorded for 36–48 h, at a temperature of 22 °C, with a membrane potential of −60 mV. HEK293T cells were recorded 36–48 h after transfection using IPA (Integrated Patch Amplifier) via the […], at a temperature of 22 °C, with a membrane potential of −60 mV. SutterPatch Software v. 1.1.1 (Sutter Instruments, Novato, CA, USA) was used to digitize membrane currents for a short period. The sampling frequency was set to 10 kHz, and the low-pass filter was set to 2 kHz. Borosilicate glass was used to fabricate the patch electrodes with a resistance of 2–4 MΩ. The extracellular solution contained the following (values are in mM): 150 NaCl, 2.8 KCl, 0.5 MgCl2, 2 CaCl2, and 10 HEPES, adjusted to pH 7.4 with NaOH. The pipette solution contained the following (values are in mM): 110 CsF, 30 CsCl, 4 NaCl, 0.5 CaCl2, 10 […], and 10 HEPES, adjusted to pH 7.2 with CsOH. […]

[2] = target: T2, GluA1/2 (Homo sapiens, UniProt P42261+P42262); test: Whole-cell patch-clamp recordings of heteromeric GluA1/2 AMPAR in transfected HEK293T cells; details: for Amplitude (glutamate plus TC compound): 10 mM glutamate + TC compound (12 µM optimal concentration), HEK293T, -60 mV, pH 7.4, 22 °C, mean ± SEM; for Amplitude (glutamate plus TC compound) / Amplitude, applying glutamate alone after TC compound: n = 10; for Amplitude, applying glutamate alone after TC compound: 10 mM glutamate alone after 20 s wash following the TC compound; for A/AI: ratio of current with glutamate alone (A) to inhibited current after TC compound (AI); for t deact: weighted tau of deactivation, 10 mM glutamate for 1 ms, glutamate alone 2.5±0.3; for t deact / t des: with TC compound; for t des: weighted tau of desensitization, 10 mM glutamate 500 ms, glutamate alone 5.2±0.5
T2 construct: expressed in transfected cells; host or cells: HEK293T
Procedure: as §1, §2, §3, §4, §5

[3] = target: T3, GluA2/3 (Homo sapiens, UniProt P42262+P42263); test: Whole-cell patch-clamp recordings of heteromeric GluA2/3 AMPAR in transfected HEK293T cells; details: for Amplitude (glutamate plus TC compound): 10 mM glutamate + TC compound (12 µM optimal concentration), HEK293T, -60 mV, pH 7.4, 22 °C, mean ± SEM; for Amplitude (glutamate plus TC compound) / Amplitude, applying glutamate alone after TC compound: n = 10; for Amplitude, applying glutamate alone after TC compound: 10 mM glutamate alone after 20 s wash following the TC compound; for A/AI: ratio of current with glutamate alone (A) to inhibited current after TC compound (AI); for t deact: weighted tau of deactivation, 10 mM glutamate for 1 ms, glutamate alone 2.6±0.3; for t deact / t des: with TC compound; for t des: weighted tau of desensitization, 10 mM glutamate 500 ms, glutamate alone 2.7±0.2
T3 construct: expressed in transfected cells; host or cells: HEK293T
Procedure: as §1, §2, §3, §4, §5

[4] = tested on: AMPAR subunits (GluA1, GluA1/2, GluA2, and GluA2/3); test: Whole-cell patch-clamp recordings, statements over all tested AMPAR subunits; details: for reduction in τw des: across all examined subunits; for increase in τw deact / decrease in AMPAR subunit activity (inhibition of the whole-cell current): all tested subunits; for increase in τw deact: 10 mM glutamate for 1 ms; for decrease in AMPAR subunit activity (inhibition of the whole-cell current): 10 mM glutamate, 500 ms protocol
Procedure: as §1
A thorough investigation was performed to assess the neuroprotective potential of the TC compounds. The influence of the five TC compounds on the desensitization traces is seen in Figure 4, namely in panels b, d, f, and h. TC-2 caused a substantial reduction in τw des in all receptor subunits, with decreases ranging from 2 to 3 times.
as §3, §4
as §5, with “CsOH. Using double barrel glass (theta tube), glutamate and the solutions of choice were rapidly administered, and the theta tube was mounted on a high-speed piezo solution switcher (Automate Scientific, Berkeley, CA, USA).” for “CsOH.”

[5] = Table S6, peak current amplitudes, 8-10 cells, GraphPad Prism fit, read-out: IC50
[6] = Table S6, read-out: Log IC50 (converted)

T1 sequence (P42262 25-883 isoform P42262-2 limits assumed, species assumed): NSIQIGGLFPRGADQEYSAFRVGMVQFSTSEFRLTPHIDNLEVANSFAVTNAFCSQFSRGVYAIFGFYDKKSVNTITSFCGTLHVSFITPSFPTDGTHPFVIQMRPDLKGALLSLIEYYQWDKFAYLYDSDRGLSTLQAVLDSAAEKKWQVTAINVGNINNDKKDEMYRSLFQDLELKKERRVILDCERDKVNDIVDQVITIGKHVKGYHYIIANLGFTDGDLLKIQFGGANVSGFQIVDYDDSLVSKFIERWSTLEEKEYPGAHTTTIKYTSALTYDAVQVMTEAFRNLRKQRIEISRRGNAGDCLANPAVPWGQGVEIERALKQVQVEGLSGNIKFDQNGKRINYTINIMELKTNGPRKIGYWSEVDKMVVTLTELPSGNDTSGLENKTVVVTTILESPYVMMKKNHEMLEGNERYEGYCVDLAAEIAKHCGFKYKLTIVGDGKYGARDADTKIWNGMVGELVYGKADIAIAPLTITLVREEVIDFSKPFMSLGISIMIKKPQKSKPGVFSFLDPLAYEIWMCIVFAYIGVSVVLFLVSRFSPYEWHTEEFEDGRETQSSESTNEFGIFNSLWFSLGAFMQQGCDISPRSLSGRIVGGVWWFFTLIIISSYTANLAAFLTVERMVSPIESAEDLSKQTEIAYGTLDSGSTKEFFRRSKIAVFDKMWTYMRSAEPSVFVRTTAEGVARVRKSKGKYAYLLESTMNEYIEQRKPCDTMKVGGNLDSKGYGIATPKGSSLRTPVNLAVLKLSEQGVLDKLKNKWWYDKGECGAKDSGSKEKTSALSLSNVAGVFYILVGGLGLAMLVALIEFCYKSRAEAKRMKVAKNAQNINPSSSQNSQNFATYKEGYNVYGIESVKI
T3 sequence (P42262 25-883 isoform P42262-2 limits assumed): as the sequence (P42262 25-883 isoform P42262-2 limits assumed, species assumed) above
T3 sequence (P42263 29-894 isoform P42263-2 limits assumed): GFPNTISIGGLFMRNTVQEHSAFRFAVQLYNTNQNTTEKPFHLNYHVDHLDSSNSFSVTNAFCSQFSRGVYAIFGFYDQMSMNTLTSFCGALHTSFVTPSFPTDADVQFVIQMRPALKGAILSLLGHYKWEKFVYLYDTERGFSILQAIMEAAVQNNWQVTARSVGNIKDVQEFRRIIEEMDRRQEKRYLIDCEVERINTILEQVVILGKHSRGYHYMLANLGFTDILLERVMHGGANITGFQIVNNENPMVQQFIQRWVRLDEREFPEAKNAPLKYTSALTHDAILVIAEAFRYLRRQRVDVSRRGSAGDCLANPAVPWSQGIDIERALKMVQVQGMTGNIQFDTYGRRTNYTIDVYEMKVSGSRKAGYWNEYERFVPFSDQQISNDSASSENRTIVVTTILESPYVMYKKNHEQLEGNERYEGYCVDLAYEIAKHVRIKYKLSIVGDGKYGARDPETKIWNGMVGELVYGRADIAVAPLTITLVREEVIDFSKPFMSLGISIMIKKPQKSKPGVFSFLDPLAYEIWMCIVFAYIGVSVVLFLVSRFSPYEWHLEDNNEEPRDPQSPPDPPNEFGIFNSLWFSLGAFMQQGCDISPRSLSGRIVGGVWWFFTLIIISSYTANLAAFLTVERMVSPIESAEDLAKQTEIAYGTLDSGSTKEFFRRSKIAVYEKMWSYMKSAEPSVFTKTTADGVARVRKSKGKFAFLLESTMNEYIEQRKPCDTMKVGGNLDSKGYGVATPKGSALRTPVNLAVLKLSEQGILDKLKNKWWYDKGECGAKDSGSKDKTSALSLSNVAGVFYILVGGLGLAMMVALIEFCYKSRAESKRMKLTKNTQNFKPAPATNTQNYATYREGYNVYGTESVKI
T2 sequence (P42261 19-906 isoform P42261-2 limits assumed): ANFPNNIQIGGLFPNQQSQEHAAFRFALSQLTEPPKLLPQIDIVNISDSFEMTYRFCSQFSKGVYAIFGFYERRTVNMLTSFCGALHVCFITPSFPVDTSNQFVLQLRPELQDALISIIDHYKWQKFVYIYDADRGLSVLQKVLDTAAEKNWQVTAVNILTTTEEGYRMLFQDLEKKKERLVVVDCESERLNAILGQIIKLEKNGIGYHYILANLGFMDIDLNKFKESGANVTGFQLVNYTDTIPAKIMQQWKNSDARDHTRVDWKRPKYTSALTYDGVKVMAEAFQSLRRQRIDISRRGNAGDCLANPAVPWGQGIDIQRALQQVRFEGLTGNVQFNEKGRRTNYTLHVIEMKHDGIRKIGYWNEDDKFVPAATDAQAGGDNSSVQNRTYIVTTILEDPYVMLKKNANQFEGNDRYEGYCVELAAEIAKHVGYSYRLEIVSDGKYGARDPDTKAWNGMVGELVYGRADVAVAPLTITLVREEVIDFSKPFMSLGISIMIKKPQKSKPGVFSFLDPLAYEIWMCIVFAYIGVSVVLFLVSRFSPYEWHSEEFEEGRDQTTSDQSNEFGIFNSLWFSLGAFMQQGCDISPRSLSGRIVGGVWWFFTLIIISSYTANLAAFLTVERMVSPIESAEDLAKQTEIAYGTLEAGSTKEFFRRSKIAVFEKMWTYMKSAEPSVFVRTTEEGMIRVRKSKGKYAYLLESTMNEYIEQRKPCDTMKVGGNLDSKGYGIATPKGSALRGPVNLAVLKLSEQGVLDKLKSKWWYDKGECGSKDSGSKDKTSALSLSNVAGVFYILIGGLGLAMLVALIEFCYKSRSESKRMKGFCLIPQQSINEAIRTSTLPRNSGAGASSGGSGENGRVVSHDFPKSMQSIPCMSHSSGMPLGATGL
T2 sequence (P42262 25-883 isoform P42262-2 limits assumed): as the sequence (P42262 25-883 isoform P42262-2 limits assumed, species assumed) above

Row | SMILES | Amplitude (glutamate plus TC compound) [1] [pA] | Amplitude, applying glutamate alone after TC compound [1] [pA] | IC50 [1, 6] [µM] | A/AI [1] | t deact [1] [ms] | t des [1] [ms] | Amplitude (glutamate plus TC compound) [2] [pA] | Amplitude, applying glutamate alone after TC compound [2] [pA] | IC50 [2, 5] [µM] | IC50 [2, 6] [µM] | A/AI [2] | t deact [2] [ms] | t des [2] [ms] | Amplitude (glutamate plus TC compound) [3] [pA] | Amplitude, applying glutamate alone after TC compound [3] [pA] | IC50 [3, 5] [µM] | IC50 [3, 6] [µM] | A/AI [3] | t deact [3] [ms] | t des [3] [ms] | other results
1 | COc1ccc(-c2nc(C(=O)Nc3ccc(C(C)(C)C)cc3)cs2)cc1 [TC-4] | 393±43 | 1110±101 | 5.62 | 2.91±0.07 | 3.4 ± 0.2 | 1.8 ± 0.1 | 221±26 | 609±77 | 5.78 | 5.75 | 2.86±0.02 | 3.2 ± 0.4 | 4.4 ± 0.3 | 183±36 | 460±95 | 5.64 | 5.62 | 2.59±0.05 | 3.3 ± 0.3 | 1.9 ± 0.2 | IC50 [1, 5]: 5.6 µM; reduction in τw des [4]: little effect; increase in τw deact [4]: weaker effects; decrease in AMPAR subunit activity (inhibition of the whole-cell current) [4]: ~2.5 fold
2 | COc1ccc(-c2nc(C(=O)Nc3ccccc3)cs2)cc1 [TC-3] | 363±37 | 1078±112 | 5.5 | 3.17±0.02 | 3.5 ± 0.3 | 1.7 ± 0.1 | 197±24 | 565±72 | 5.64 | 5.62 | 3.09±0.02 | 3.3 ± 0.3 | 4.2 ± 0.3 | 159±25 | 456±76 | 5.53 | 5.5 | 3.06±0.07 | 3.4 ± 0.4 | 1.8 ± 0.2 | IC50 [1, 5]: 5.5 µM; reduction in τw des [4]: little effect; increase in τw deact [4]: weaker effects; decrease in AMPAR subunit activity (inhibition of the whole-cell current) [4]: ~3 fold
3 | COc1ccc(-c2nc(C(=O)Nc3ccc(OC)c(OC)c3)cs2)cc1 [TC-1] | 233±20 | 1137±97 | 3.31 | 5.03±0.04 | 5.9 ± 0.2 | 1.1 ± 0.1 | 126±12 | 604±62 | 3.36 | 3.39 | 4.98±0.06 | 5.8 ± 0.4 | 3.9 ± 0.4 | 102±13 | 491±61 | 3.38 | 3.39 | 4.95±0.19 | 5.6 ± 0.4 | 1.2 ± 0.3 | IC50 ([1]; read-out: IC50): 3.3 µM; decrease in τw des [2]: around 1.3 fold; reduction in τw des [4]: roughly twofold; increase in τw deact [4]: around 2 fold; decrease in AMPAR subunit activity (inhibition of the whole-cell current) [4]: 5 fold
